From article PMC7434893 (British Journal of Cancer, 2020)

Assays:
MDA-MB-436 = assay: 8-day growth inhibition; assay type: cell-based; conditions: Breast, MDA-MB-436, 8-day assay
HEC-265 = assay: 8-day growth inhibition; assay type: cell-based; conditions: Endometrial, HEC-265, 8-day assay
MFE-296 = assay: 8-day growth inhibition; assay type: cell-based; conditions: Endometrial, MFE-296, 8-day assay
HEC-1 = assay: 8-day growth inhibition; assay type: cell-based; conditions: Endometrial, HEC-1, 8-day assay
NCEB-1 = assay: 8-day growth inhibition; assay type: cell-based; conditions: MCL, NCEB-1, 8-day assay
SNU-182 = assay: 8-day growth inhibition; assay type: cell-based; conditions: HCC, SNU-182, 8-day assay
Namalwa = assay: 8-day growth inhibition; assay type: cell-based; conditions: Burkitt's lymphoma, 8-day assay
HepG2 = assay: 8-day growth inhibition; assay type: cell-based; conditions: HCC, HepG2, 8-day assay
MDA-MB-453 = assay: 8-day growth inhibition; assay type: cell-based; conditions: Breast, MDA-MB-453, 8-day assay
PARP = PARP inhibition by PAR levels in PBMCs (ELISA); assay type: in vivo, human
Procedure: Inhibition of PARP activity was measured by quantifying PAR in PBMCs using an enzyme-linked immunosorbent assay (HT PARP in vivo Pharmacodynamic Assay II kit). PAR levels in PBMCs and the percentage change from baseline were summarised by dose and nominal sampling time point.

NCI-H1694 = assay: 8-day growth inhibition; assay type: cell-based; conditions: SCLC, NCI-H1694, 8-day assay
NCI-H929 = assay: 8-day growth inhibition; assay type: cell-based; conditions: Myeloma, NCI-H929, 8-day assay
JVM-13 = assay: 8-day growth inhibition; assay type: cell-based; conditions: MCL, JVM-13, 8-day assay
advanced solid tumours = assay: Clinical outcome by 2X-121 DRP prediction; assay type: in vivo, human
Excerpt: Matching baseline transcriptome and growth inhibition data were available for 61 of the 74 cell lines, and were used to develop a DRP as previously described.[21],[22] Briefly, IC50 values in the 61 cell lines were correlated to gene-expression levels in the same cell lines; 172 genes with a Pearson correlation above 0.25 were retained as potential markers of sensitivity, while 242 genes with a Pearson correlation below −0.25 were retained as potential markers of resistance. The 414 genes were searched in PubMed for known associations to DNA damage response or Wnt/β-catenin pathways. The 111 pathway-associated genes are shown in Supplementary Table 2. Archival biopsies, in the form of formalin-fixed paraffin-embedded blocks and slides, were obtained from patients in the trial. Only those samples that yielded RNA of sufficient quantity and quality were evaluated for gene expression. The expression of the 414 genes in the 2X-121 DRP was analysed via a custom Affymetrix U133_Plus2 microarray according to the manufacturer’s instructions. The 2X-121 DRP was applied in a blinded manner following a prespecified analysis plan. The difference between the means of the genes that were positively correlated and those negatively correlated to response was used as a single prediction score for each patient, after normalisation to a range of 0–100.
As a first-in-human phase 1 clinical trial, no formal sample-size calculation or hypothesis testing was undertaken. Analysis of biomarker predictions was performed using a 1-sided Pearson correlation test and a 1-sided log-rank test for time-to-event data according to a prespecified analysis plan.

sVEGFR3 = assay: Serum biomarker analysis, sVEGFR3; assay type: in vivo, human; conditions: data not shown
Procedure: (§1) Two pre-dose, multiple post-dose and off-treatment time points were included. Serum samples were tested for concentrations of soluble vascular endothelial growth factor receptor (VEGFR)2, VEGFR3 and soluble interleukin-2 receptor α (sIL-2Rα/CD25), using the bead-based Human Soluble Cytokine Receptor Panel assay kit. The two baseline samples (days −3 and −2 prior to dosing) were averaged, and the mean was used to calculate percent change at each of the post-dosing time points.

NCI-H209 = assay: 8-day growth inhibition; assay type: cell-based; conditions: SCLC, NCI-H209, 8-day assay
DU145 = assay: 8-day growth inhibition; assay type: cell-based; conditions: Prostate, DU145, 8-day assay
HEC-108 = assay: 8-day growth inhibition; assay type: cell-based; conditions: Endometrial, HEC-108, 8-day assay
IM-9 = assay: 8-day growth inhibition; assay type: cell-based; conditions: B lymphoblast, IM-9, 8-day assay
HEC-50B = assay: 8-day growth inhibition; assay type: cell-based; conditions: Endometrial, 8-day assay
Toledo = assay: 8-day growth inhibition; assay type: cell-based; conditions: DLBCL (GC), 8-day assay
[1] = 2-compartment pharmacokinetic model; assay type: in vivo, human; conditions: model estimate
Excerpt: In the second stage, the final parameters from the pharmacokinetic model were fixed for sequential PK/PD modelling.

sVEGFR2 = assay: Serum biomarker analysis, sVEGFR2; assay type: in vivo, human; conditions: data not shown
Procedure: as §1

JVM-2 = assay: 8-day growth inhibition; assay type: cell-based; conditions: MCL, JVM-2, 8-day assay
HCT-15 = assay: 8-day growth inhibition; assay type: cell-based; conditions: Colon, HCT-15, 8-day assay
ECC-1 = assay: 8-day growth inhibition; assay type: cell-based; conditions: Endometrial, ECC-1, 8-day assay
A549 = assay: 8-day growth inhibition; assay type: cell-based; conditions: NSCLC, A549, 8-day assay
MDA-MB-157 = assay: 8-day growth inhibition; assay type: cell-based; conditions: Breast, MDA-MB-157, 8-day assay
M14 = assay: 8-day growth inhibition; assay type: cell-based; conditions: Melanoma, M14, 8-day assay
MFE-280 = assay: 8-day growth inhibition; assay type: cell-based; conditions: Endometrial, MFE-280, 8-day assay
[2] = 6 patients predicted sensitive by 2X-121 DRP (cut-off 50)
[3] = 7 patients predicted not sensitive by 2X-121 DRP

## O=c1[nH]nc2c3c(cccc13)N=C(CN1Cc3ccccc3C1)N2 [E7449]
MDA-MB-436
  IC50: 190 nM
HEC-265
  IC50: 2400 nM
MFE-296
  IC50: 670 nM
HEC-1
  IC50: 1280 nM
NCEB-1
  IC50: 5300 nM
SNU-182
  IC50: 5400 nM
Namalwa
  IC50: 2500 nM
HepG2
  IC50: 3800 nM
MDA-MB-453
  IC50: 6200 nM
PARP; 600 mg, fasted cohort
  Time of maximal decrease in PAR levels after administration: 2 to 4 h
PARP; 600 mg, fed cohort
  Time of maximal decrease in PAR levels post treatment: 4 to 8 h
PARP; 24-h post-dose time points (cycle 1, days 1, 7, 8 and 16)
  Decrease in PAR levels: ≥ 70%
PARP; MTD 600 mg once daily, steady state, PAR in PBMCs
  Population mean PARP inhibition: approximately 90%
PARP; food-effect cohorts, 600 mg
  Inhibition in PAR levels from baseline: up to 90%
NCI-H1694
  IC50: 2470 nM
NCI-H929
  IC50: 5200 nM
JVM-13
  IC50: 7300 nM
Advanced solid tumours; [2]
  Median overall survival: > 800 days
  Median time to progression: 296 days
Advanced solid tumours; [3]
  Median overall survival: 208 days
  Median time to progression: 155 days
sVEGFR3
  Change in serum concentration of sVEGFR3 from baseline: No significant changes
NCI-H209
  IC50: 620 nM
DU145
  IC50: 1800 nM
HEC-108
  IC50: 5970 nM
IM-9
  IC50: 2100 nM
HEC-50B
  IC50: 3450 nM
Toledo
  IC50: 1600 nM
[1]; central to peripheral compartment
  k12: 0.21 h⁻¹
[1]; all doses fitted
  V/F, apparent volume of distribution for the central compartment: 149.7 L
  ka, absorption rate constant: 0.82 h⁻¹
  ke, first-order elimination rate constant: 0.51 h⁻¹
[1]; peripheral to central compartment
  k21: 0.27 h⁻¹
sVEGFR2
  Change in serum concentration of sVEGFR2 from baseline: No significant changes
JVM-2
  IC50: 14000 nM
HCT-15
  IC50: 2200 nM
ECC-1
  IC50: 680 nM
A549
  IC50: 2200 nM
MDA-MB-157
  IC50: 6800 nM
M14
  IC50: 6700 nM
MFE-280
  IC50: 770 nM
